In brackets after ≈: the same amount, converted by molar mass.
Legend:
Format in all cases: functional, organism-based
[1] = test system: Cercospora beticola; assay: Antifungal activity against Cercospora beticola isolate 11-1040-1 expressing cytb with alanine at codon 143 assessed as reduction in spore germination
[2] = test system: Cercospora beticola; assay: Antifungal activity against Cercospora beticola isolate 11-1016-1 expressing cytb with alanine at codon 143 assessed as reduction in spore germination
[3] = test system: Cercospora beticola; assay: Antifungal activity against Cercospora beticola isolate 11-1027-1 expressing cytb with alanine at codon 143 assessed as reduction in spore germination
[4] = test system: Cercospora beticola; assay: Antifungal activity against Cercospora beticola isolate 11-1042-1 expressing cytb with alanine at codon 143 assessed as reduction in spore germination
[5] = test system: Cercospora beticola; assay: Antifungal activity against Cercospora beticola isolate 11-1036-2 expressing cytb with alanine at codon 143 assessed as reduction in spore germination
[6] = test system: Cercospora beticola; assay: Antifungal activity against Cercospora beticola isolate 11-1044-1 expressing cytb with alanine at codon 143 assessed as reduction in spore germination
[7] = test system: Cercospora beticola; assay: Antifungal activity against Cercospora beticola isolate 11-1014-1 expressing cytb with alanine at codon 143 assessed as reduction in spore germination
[8] = test system: Cercospora beticola; assay: Antifungal activity against Cercospora beticola isolate 11-1015-1 expressing cytb with alanine at codon 143 assessed as reduction in spore germination
[9] = test system: Cercospora beticola; assay: Antifungal activity against Cercospora beticola isolate 11-1038-2 expressing cytb with alanine at codon 143 assessed as reduction in spore germination
[10] = test system: Cercospora beticola; assay: Antifungal activity against Cercospora beticola isolate 11-1039-1 expressing cytb with alanine at codon 143 assessed as reduction in spore germination
[11] = test system: Cercospora beticola; assay: Antifungal activity against Cercospora beticola isolate 11-1037-1 expressing cytb with alanine at codon 143 assessed as reduction in spore germination
[12] = test system: Cercospora beticola; assay: Antifungal activity against Cercospora beticola isolate 11-1045-2 expressing cytb with alanine at codon 143 assessed as reduction in spore germination
[13] = test system: Cercospora beticola; assay: Antifungal activity against Cercospora beticola isolate 11-1022-2 expressing cytb with alanine at codon 143 assessed as reduction in spore germination
[14] = test system: Cercospora beticola; assay: Antifungal activity against Cercospora beticola isolate 11-1007-2 expressing cytb with alanine at codon 143 assessed as reduction in spore germination
[15] = test system: Cercospora beticola; assay: Antifungal activity against Cercospora beticola isolate 11-1008-1 expressing cytb with alanine at codon 143 assessed as reduction in spore germination
[16] = test system: Cercospora beticola; assay: Antifungal activity against Cercospora beticola isolate 11-1009-1 expressing cytb with alanine at codon 143 assessed as reduction in spore germination
[17] = test system: Cercospora beticola; assay: Antifungal activity against Cercospora beticola isolate 11-1004-1 expressing cytb with alanine at codon 143 assessed as reduction in spore germination
[18] = test system: Cercospora beticola; assay: Antifungal activity against Cercospora beticola isolate 11-1041-1 expressing cytb with alanine at codon 143 assessed as reduction in spore germination
[19] = test system: Cercospora beticola; assay: Antifungal activity against Cercospora beticola isolate 11-1026-1 expressing cytb with alanine at codon 143 assessed as reduction in spore germination
[20] = test system: Cercospora beticola; assay: Antifungal activity against Cercospora beticola isolate 99-233-3-M expressing cytb with glycine at codon 143 assessed as reduction in spore germination
[21] = test system: Cercospora beticola; assay: Antifungal activity against Cercospora beticola isolate 11-1042-2 expressing cytb with alanine at codon 143 assessed as reduction in spore germination
[22] = test system: Cercospora beticola; assay: Antifungal activity against Cercospora beticola isolate 11-1005-1 expressing cytb with alanine at codon 143 assessed as reduction in spore germination
[23] = test system: Cercospora beticola; assay: Antifungal activity against Cercospora beticola isolate 11-1043-2 expressing cytb with alanine at codon 143 assessed as reduction in spore germination
[24] = test system: Cercospora beticola; assay: Antifungal activity against Cercospora beticola isolate 98-19-M expressing cytb with glycine at codon 143 assessed as reduction in spore germination
[25] = test system: Cercospora beticola; assay: Antifungal activity against Cercospora beticola isolate 11-1007-1 expressing cytb with alanine at codon 143 assessed as reduction in spore germination
[26] = test system: Cercospora beticola; assay: Antifungal activity against Cercospora beticola isolate 11-1005-2 expressing cytb with alanine at codon 143 assessed as reduction in spore germination
[27] = test system: Cercospora beticola; assay: Antifungal activity against Cercospora beticola isolate 11-1028-1 expressing cytb with alanine at codon 143 assessed as reduction in spore germination
[28] = test system: Cercospora beticola; assay: Antifungal activity against Cercospora beticola isolate 11-1027-2 expressing cytb with alanine at codon 143 assessed as reduction in spore germination
[29] = test system: Cercospora beticola; assay: Antifungal activity against Cercospora beticola isolate 11-1046-2 expressing cytb with alanine at codon 143 assessed as reduction in spore germination
[30] = test system: Cercospora beticola; assay: Antifungal activity against Cercospora beticola isolate 98-13-M expressing cytb with glycine at codon 143 assessed as reduction in spore germination
[31] = test system: Cercospora beticola; assay: Antifungal activity against Cercospora beticola isolate 99-521-29-M expressing cytb with glycine at codon 143 assessed as reduction in spore germination
[32] = test system: Cercospora beticola; assay: Antifungal activity against Cercospora beticola isolate 11-1037-2 expressing cytb with alanine at codon 143 assessed as reduction in spore germination
[33] = test system: Cercospora beticola; assay: Antifungal activity against Cercospora beticola isolate 11-1038-1 expressing cytb with alanine at codon 143 assessed as reduction in spore germination
[34] = test system: Cercospora beticola; assay: Antifungal activity against Cercospora beticola isolate 11-1044-2 expressing cytb with alanine at codon 143 assessed as reduction in spore germination
[35] = test system: Cercospora beticola; assay: Antifungal activity against Cercospora beticola isolate 11-1003-2 expressing cytb with alanine at codon 143 assessed as reduction in spore germination
[36] = test system: Cercospora beticola; assay: Antifungal activity against Cercospora beticola isolate 11-1040-2 expressing cytb with alanine at codon 143 assessed as reduction in spore germination
[37] = test system: Cercospora beticola; assay: Antifungal activity against Cercospora beticola isolate 98-9-M expressing cytb with glycine at codon 143 assessed as reduction in spore germination
[38] = test system: Cercospora beticola; assay: Antifungal activity against Cercospora beticola isolate 11-1035-2 expressing cytb with alanine at codon 143 assessed as reduction in spore germination
[39] = test system: Cercospora beticola; assay: Antifungal activity against Cercospora beticola isolate 11-1046-1 expressing cytb with alanine at codon 143 assessed as reduction in spore germination
[40] = test system: Cercospora beticola; assay: Antifungal activity against Cercospora beticola isolate 11-1026-2 expressing cytb with alanine at codon 143 assessed as reduction in spore germination
[41] = test system: Cercospora beticola; assay: Antifungal activity against Cercospora beticola isolate 98-12-M expressing cytb with glycine at codon 143 assessed as reduction in spore germination
[42] = test system: Cercospora beticola; assay: Antifungal activity against Cercospora beticola isolate 11-1028-2 expressing cytb with alanine at codon 143 assessed as reduction in spore germination
[43] = test system: Cercospora beticola; assay: Antifungal activity against Cercospora beticola isolate 98-101-5-M expressing cytb with glycine at codon 143 assessed as reduction in spore germination
[44] = test system: Cercospora beticola; assay: Antifungal activity against Cercospora beticola isolate 98-10-M expressing cytb with glycine at codon 143 assessed as reduction in spore germination
[45] = test system: Cercospora beticola; assay: Antifungal activity against Cercospora beticola isolate 11-1006-2 expressing cytb with alanine at codon 143 assessed as reduction in spore germination
[46] = test system: Cercospora beticola; assay: Antifungal activity against Cercospora beticola isolate 11-1036-1 expressing cytb with alanine at codon 143 assessed as reduction in spore germination
[47] = test system: Cercospora beticola; assay: Antifungal activity against Cercospora beticola isolate 98-150-M expressing cytb with glycine at codon 143 assessed as reduction in spore germination
[48] = test system: Cercospora beticola; assay: Antifungal activity against Cercospora beticola isolate 11-1022-1 expressing cytb with alanine at codon 143 assessed as reduction in spore germination
[49] = test system: Cercospora beticola; assay: Antifungal activity against Cercospora beticola isolate 11-1015-2 expressing cytb with alanine at codon 143 assessed as reduction in spore germination

## CO/N=C(\C(=O)OC)c1ccccc1CO/N=C(\C)c1cccc(C(F)(F)F)c1
[1]
  EC50: 7.64 µg/mL (≈ 18.7 µM)
[2]
  EC50: 5.89 µg/mL (≈ 14.4 µM)
[3]
  EC50: 29.7 µg/mL (≈ 72.8 µM)
[4]
  EC50: 8.83 µg/mL (≈ 21.6 µM)
[5]
  EC50: 8.15 µg/mL (≈ 20 µM)
[6]
  EC50: 13.8 µg/mL (≈ 33.9 µM)
[7]
  EC50: 4.54 µg/mL (≈ 11.1 µM)
[8]
  EC50: 7.3 µg/mL (≈ 17.9 µM)
[9]
  EC50: 35.5 µg/mL (≈ 86.9 µM)
[10]
  EC50: 6.79 µg/mL (≈ 16.6 µM)
[11]
  EC50: 6.78 µg/mL (≈ 16.6 µM)
[12]
  EC50: 7.02 µg/mL (≈ 17.2 µM)
[13]
  EC50: 4.98 µg/mL (≈ 12.2 µM)
[14]
  EC50: 6.84 µg/mL (≈ 16.8 µM)
[15]
  EC50: 7.49 µg/mL (≈ 18.4 µM)
[16]
  EC50: 39.4 µg/mL (≈ 96.4 µM)
[17]
  EC50: 6.66 µg/mL (≈ 16.3 µM)
[18]
  EC50: 6.09 µg/mL (≈ 14.9 µM)
[19]
  EC50: 25.9 µg/mL (≈ 63.5 µM)
[20]
  EC50: 0.004 µg/mL (≈ 0.00979 µM)
[21]
  EC50: 2.36 µg/mL (≈ 5.79 µM)
[22]
  EC50: 9.54 µg/mL (≈ 23.4 µM)
[23]
  EC50: 3.27 µg/mL (≈ 8 µM)
[24]
  EC50: 0.005 µg/mL (≈ 0.0122 µM)
[25]
  EC50: 7.65 µg/mL (≈ 18.7 µM)
[26]
  EC50: 3.25 µg/mL (≈ 7.96 µM)
[27]
  EC50: 7.62 µg/mL (≈ 18.7 µM)
[28]
  EC50: 6.06 µg/mL (≈ 14.8 µM)
[29]
  EC50: 8.37 µg/mL (≈ 20.5 µM)
[30]
  EC50: 0.006 µg/mL (≈ 0.0147 µM)
[31]
  EC50: 0.005 µg/mL (≈ 0.0122 µM)
[32]
  EC50: 4.24 µg/mL (≈ 10.4 µM)
[33]
  EC50: 19.9 µg/mL (≈ 48.6 µM)
[34]
  EC50: 8.56 µg/mL (≈ 21 µM)
[35]
  EC50: 1 µg/mL (≈ 2.45 µM)
[36]
  EC50: 13.7 µg/mL (≈ 33.4 µM)
[37]
  EC50: 0.004 µg/mL (≈ 0.00979 µM)
[38]
  EC50: 6.36 µg/mL (≈ 15.6 µM)
[39]
  EC50: 5.48 µg/mL (≈ 13.4 µM)
[40]
  EC50: 8.55 µg/mL (≈ 20.9 µM)
[41]
  EC50: 0.005 µg/mL (≈ 0.0122 µM)
[42]
  EC50: 4.96 µg/mL (≈ 12.2 µM)
[43]
  EC50: 0.006 µg/mL (≈ 0.0147 µM)
[44]
  EC50: 0.001 µg/mL (≈ 0.00245 µM)
[45]
  EC50: 8.46 µg/mL (≈ 20.7 µM)
[46]
  EC50: 3.62 µg/mL (≈ 8.88 µM)
[47]
  EC50: 0.004 µg/mL (≈ 0.00979 µM)
[48]
  EC50: 6.86 µg/mL (≈ 16.8 µM)
[49]
  EC50: 7.79 µg/mL (≈ 19.1 µM)
